{"source": "patent US7763602B2", "about": "“Pyrrole derivatives as antimycobacterial compounds” (priority 2002, dated 2010)", "format_in_all_cases": "cell-based, Mycobacterium tuberculosis", "key": {"[1]": {"system": "M. tuberculosis H37Rv ATCC 27294", "experiment": "In vitro growth inhibition assay, BACTEC 460 TB system", "design": "key: +: If ΔGI of test vial is less than that of the control vial the culture was sensitive to the test compound", "conditions": "final concentration 6.25 μg/ml"}, "M. tuberculosis 27294": {"system": "M. tuberculosis 27294", "experiment": "In vitro agar dilution assay (MIC), reference strain", "conditions": "Table I"}, "[2]": {"system": "M. tuberculosis clinical isolates, sensitive", "experiment": "microbe, parasite or virus in culture", "conditions": "Table I; agar dilution"}}}
{"smiles": "Cc1c(CN2CCN(c3ccc(F)cc3)CC2)cc(-c2ccccc2)n1NC(=O)c1ccncc1", "note": "[compound 11, N-(3-{[4-(4-fluorophenyl)piperazinyl]methyl}-2-methyl-5-phenylpyrrolyl)-4-pyridylcarboxamide]", "values": [{"measurement": "Growth inhibition of M. tuberculosis 27294", "setting": "[1]", "result": "+"}, {"measurement": "MIC (μg/ml) against M. tuberculosis-27294", "setting": "M. tuberculosis 27294", "result": 1.0, "unit": "µg/mL"}, {"measurement": "MIC (μg/ml) against Clinical isolates Sensitive", "setting": "[2]", "result": "0.5 to 1.0", "unit": "µg/mL"}]}
{"smiles": "COc1ccccc1N1CCN(Cc2cc(-c3ccccc3)n(NC(=O)c3ccncc3)c2C)CC1", "note": "[compound 13, N-(3-{[4-(2-methoxyphenyl)piperazinyl]methyl}-2-methyl-5-phenylpyrrolyl)-4-pyridylcarboxamide]", "values": [{"measurement": "Growth inhibition of M. tuberculosis 27294", "setting": "[1]", "result": "+"}, {"measurement": "MIC (μg/ml) against M. tuberculosis-27294", "setting": "M. tuberculosis 27294", "result": 0.5, "unit": "µg/mL"}, {"measurement": "MIC (μg/ml) against Clinical isolates Sensitive", "setting": "[2]", "result": "0.5 to 2.0", "unit": "µg/mL"}]}
{"smiles": "Cc1c(CN2CCN(c3ccccn3)CC2)cc(-c2ccccc2)n1NC(=O)c1ccncc1", "note": "[compound 14, N-(3-{[4-(2-pyridyl)piperazinyl]methyl}-2-methyl-5-phenylpyrrolyl)-4-pyridylcarboxamide]", "values": [{"measurement": "Growth inhibition of M. tuberculosis 27294", "setting": "[1]", "result": "+"}, {"measurement": "MIC (μg/ml) against M. tuberculosis-27294", "setting": "M. tuberculosis 27294", "result": 4.0, "unit": "µg/mL"}, {"measurement": "MIC (μg/ml) against Clinical isolates Sensitive", "setting": "[2]", "result": "4.0 to 8.0", "unit": "µg/mL"}]}
{"smiles": "Cc1c(CN2CCN(Cc3ccccc3)CC2)cc(-c2ccccc2)n1NC(=O)c1ccncc1", "note": "[compound 15, N-(2-methyl-5-phenyl-3-{[4-benzylpiperazinyl]methyl}pyrrolyl)-4-pyridylcarboxamide]", "values": [{"measurement": "Growth inhibition of M. tuberculosis 27294", "setting": "[1]", "result": "+"}, {"measurement": "MIC (μg/ml) against M. tuberculosis-27294", "setting": "M. tuberculosis 27294", "result": 0.5, "unit": "µg/mL"}, {"measurement": "MIC (μg/ml) against Clinical isolates Sensitive", "setting": "[2]", "result": "0.5 to 1.0", "unit": "µg/mL"}]}
{"smiles": "Cc1c(CN2CCN(C)CC2)cc(-c2ccccc2)n1NC(=O)c1ccncc1", "note": "[compound 16, N-{2-methyl-3-[(4-methylpiperazinyl)methyl]-5-phenylpyrrolyl}-4-pyridylcarboxamide]", "values": [{"measurement": "Growth inhibition of M. tuberculosis 27294", "setting": "[1]", "result": "+"}, {"measurement": "MIC (μg/ml) against M. tuberculosis-27294", "setting": "M. tuberculosis 27294", "result": 2.0, "unit": "µg/mL"}, {"measurement": "MIC (μg/ml) against Clinical isolates Sensitive", "setting": "[2]", "result": "2.0 to 4.0", "unit": "µg/mL"}]}
{"smiles": "Cc1c(CN2CCN(Cc3ccc4c(c3)OCO4)CC2)cc(-c2ccccc2)n1NC(=O)c1ccncc1", "note": "[compound 17, N-(3-{[4-(2H-benzo[d]1,3-dioxolan-5-ylmethyl)piperazinyl]methyl}-2-methyl-5-phenylpyrrolyl)-4-pyridylcarboxamide]", "values": [{"measurement": "Growth inhibition of M. tuberculosis 27294", "setting": "[1]", "result": "+"}, {"measurement": "MIC (μg/ml) against M. tuberculosis-27294", "setting": "M. tuberculosis 27294", "result": 2.0, "unit": "µg/mL"}, {"measurement": "MIC (μg/ml) against Clinical isolates Sensitive", "setting": "[2]", "result": "2.0 to 4.0", "unit": "µg/mL"}]}
{"smiles": "Cc1c(CN2CCSCC2)cc(-c2ccccc2)n1NC(=O)c1ccncc1", "note": "[compound 21, N-[2-methyl-5-phenyl-3-(1,4-thiazaperhydroin-4-ylmethyl)pyrrolyl]-4-pyridyl carboxamide]", "values": [{"measurement": "Growth inhibition of M. tuberculosis 27294", "setting": "[1]", "result": "+"}, {"measurement": "MIC (μg/ml) against M. tuberculosis-27294", "setting": "M. tuberculosis 27294", "result": 0.5, "unit": "µg/mL"}, {"measurement": "MIC (μg/ml) against Clinical isolates Sensitive", "setting": "[2]", "result": "0.5 to 1.0", "unit": "µg/mL"}]}
{"smiles": "Cc1cc(CN2CCN(c3ccc(F)cc3)CC2)c(-c2ccccc2)n1NC(=O)c1ccncc1", "note": "[compound 22, N-(3-{[4-(4-fluorophenyl)piperazinyl]methyl}-5-methyl-2-phenylpyrrolyl)-4-pyridylcarboxamide]", "values": [{"measurement": "Growth inhibition of M. tuberculosis 27294", "setting": "[1]", "result": "+"}, {"measurement": "MIC (μg/ml) against M. tuberculosis-27294", "setting": "M. tuberculosis 27294", "result": 2.0, "unit": "µg/mL"}, {"measurement": "MIC (μg/ml) against Clinical isolates Sensitive", "setting": "[2]", "result": "2.0 to 4.0", "unit": "µg/mL"}]}
{"smiles": "Cc1c(CN2CCN(c3ccc(F)cc3)CC2)cc(-c2ccccc2)n1NC(=O)c1cnccn1", "note": "[compound 25, N-(3-{[4-(4-fluorophenyl)piperazinyl]methyl}-2-methyl-5-phenylpyrrolyl)pyrazin-2-ylcarboxamide]", "values": [{"measurement": "Growth inhibition of M. tuberculosis 27294", "setting": "[1]", "result": "+"}, {"measurement": "MIC (μg/ml) against M. tuberculosis-27294", "setting": "M. tuberculosis 27294", "result": 2.0, "unit": "µg/mL"}, {"measurement": "MIC (μg/ml) against Clinical isolates Sensitive", "setting": "[2]", "result": "2.0 to 4.0", "unit": "µg/mL"}]}
{"smiles": "COc1ccccc1N1CCN(Cc2cc(-c3ccccc3)n(NC(=O)c3cnccn3)c2C)CC1", "note": "[compound 26, N-(3-{[4-(2-methoxyphenyl)piperazinyl]methyl}-2-methyl-5-phenylpyrrolyl) pyrazin-2-ylcarboxamide]", "values": [{"measurement": "Growth inhibition of M. tuberculosis 27294", "setting": "[1]", "result": "+"}, {"measurement": "MIC (μg/ml) against M. tuberculosis-27294", "setting": "M. tuberculosis 27294", "result": 1.0, "unit": "µg/mL"}, {"measurement": "MIC (μg/ml) against Clinical isolates Sensitive", "setting": "[2]", "result": 2.0, "unit": "µg/mL"}]}
{"smiles": "Cc1c(CN2CCN(c3cccc(C(F)(F)F)c3)CC2)cc(-c2ccccc2)n1NC(=O)c1cnccn1", "note": "[compound 27, N-(3-{[4-(3-trifluoromethylphenyl)piperazinyl]methyl}-2-methyl-5-phenylpyrrolyl)pyrazin-2-ylcarboxamide]", "values": [{"measurement": "Growth inhibition of M. tuberculosis 27294", "setting": "[1]", "result": "+"}, {"measurement": "MIC (μg/ml) against M. tuberculosis-27294", "setting": "M. tuberculosis 27294", "result": 2.0, "unit": "µg/mL"}, {"measurement": "MIC (μg/ml) against Clinical isolates Sensitive", "setting": "[2]", "result": "1.0 to 4.0", "unit": "µg/mL"}]}
{"smiles": "Cc1c(CN2CCN(Cc3ccc4c(c3)OCO4)CC2)cc(-c2ccccc2)n1NC(=O)c1cnccn1", "note": "[compound 29, N-(3-{[4-(2H-benzo[d]1,3-dioxolen-5-ylmethyl)piperazinyl]methyl}-2-methyl-5-phenylpyrrolyl)pyrazin-2-ylcarboxamide]", "values": [{"measurement": "Growth inhibition of M. tuberculosis 27294", "setting": "[1]", "result": "+"}, {"measurement": "MIC (μg/ml) against M. tuberculosis-27294", "setting": "M. tuberculosis 27294", "result": ">16.0", "unit": "µg/mL"}, {"measurement": "MIC (μg/ml) against Clinical isolates Sensitive", "setting": "[2]", "result": ">16.0", "unit": "µg/mL"}]}
{"smiles": "Cc1c(CN2CCN(C(c3ccccc3)c3ccccc3)CC2)cc(-c2ccccc2)n1NC(=O)c1cnccn1", "note": "[compound 30, N-(3-{[4-(diphenylmethyl)piperazinyl]methyl}-2-methyl-5-phenylpyrrolyl)-pyrazin-2-ylcarboxamide]", "values": [{"measurement": "Growth inhibition of M. tuberculosis 27294", "setting": "[1]", "result": "+"}, {"measurement": "MIC (μg/ml) against M. tuberculosis-27294", "setting": "M. tuberculosis 27294", "result": 2.0, "unit": "µg/mL"}, {"measurement": "MIC (μg/ml) against Clinical isolates Sensitive", "setting": "[2]", "result": "2.0 to 4.0", "unit": "µg/mL"}]}
{"smiles": "Cc1cc(CN2CCN(c3cccc(C(F)(F)F)c3)CC2)c(-c2ccccc2)n1NC(=O)c1cnccn1", "note": "[compound 33, N-(3-{[4-(3-trifluoromethylphenyl)piperazinyl]methyl}-5-methyl-2-phenylpyrrolyl)pyrazin-2-ylcarboxamide]", "values": [{"measurement": "Growth inhibition of M. tuberculosis 27294", "setting": "[1]", "result": "+"}, {"measurement": "MIC (μg/ml) against M. tuberculosis-27294", "setting": "M. tuberculosis 27294", "result": 2.0, "unit": "µg/mL"}, {"measurement": "MIC (μg/ml) against Clinical isolates Sensitive", "setting": "[2]", "result": "2.0 to 8.0", "unit": "µg/mL"}]}
{"smiles": "Cc1cc(CN2CCN(c3ccccn3)CC2)c(-c2ccccc2)n1NC(=O)c1cnccn1", "note": "[compound 34, N-(3-{[4-(2-pyridyl)piperazinyl]methyl}-5-methyl-2-phenylpyrrolyl)pyrazin-2-ylcarboxamide]", "values": [{"measurement": "Growth inhibition of M. tuberculosis 27294", "setting": "[1]", "result": "+"}, {"measurement": "MIC (μg/ml) against M. tuberculosis-27294", "setting": "M. tuberculosis 27294", "result": 16.0, "unit": "µg/mL"}, {"measurement": "MIC (μg/ml) against Clinical isolates Sensitive", "setting": "[2]", "result": "16.0-16.0 μg/ml"}]}
{"smiles": "Cc1cc(CN2CCN(Cc3ccc4c(c3)OCO4)CC2)c(-c2ccccc2)n1NC(=O)c1cnccn1", "note": "[compound 35, N-(3-{[4-(2H-benzo[3,4-d]1,3-dioxolan-5-ylmethyl)piperazinyl]methyl}-5-methyl-2-phenylpyrrolyl)pyrazin-2-ylcarboxamide]", "values": [{"measurement": "Growth inhibition of M. tuberculosis 27294", "setting": "[1]", "result": "+"}, {"measurement": "MIC (μg/ml) against M. tuberculosis-27294", "setting": "M. tuberculosis 27294", "result": ">16.0", "unit": "µg/mL"}, {"measurement": "MIC (μg/ml) against Clinical isolates Sensitive", "setting": "[2]", "result": ">16.0", "unit": "µg/mL"}]}
{"smiles": "Cc1cc(CN2CCN(C(c3ccccc3)c3ccccc3)CC2)c(-c2ccccc2)n1NC(=O)c1cnccn1", "note": "[compound 36, N-(3-{[4-(diphenylmethyl)piperazinyl]methyl}-5-methyl-2-phenylpyrrolyl) pyrazin-2-ylcarboxamide]", "values": [{"measurement": "Growth inhibition of M. tuberculosis 27294", "setting": "[1]", "result": "+"}, {"measurement": "MIC (μg/ml) against M. tuberculosis-27294", "setting": "M. tuberculosis 27294", "result": 0.5, "unit": "µg/mL"}, {"measurement": "MIC (μg/ml) against Clinical isolates Sensitive", "setting": "[2]", "result": "0.5 to 1.0", "unit": "µg/mL"}]}
{"smiles": "Cc1c(CN2CCN(c3cccc(C(F)(F)F)c3)CC2)cc(-c2ccc(Cl)cc2)n1NC(=O)c1cnccn1", "note": "[compound 39, N-(5-(4-chlorophenyl)-3-{[4-(3-trifluoromethylphenyl)piperazinyl]methyl}-2-methylpyrrolyl)pyrazin-2-ylcarboxamide]", "values": [{"measurement": "Growth inhibition of M. tuberculosis 27294", "setting": "[1]", "result": "+"}, {"measurement": "MIC (μg/ml) against M. tuberculosis-27294", "setting": "M. tuberculosis 27294", "result": 4.0, "unit": "µg/mL"}, {"measurement": "MIC (μg/ml) against Clinical isolates Sensitive", "setting": "[2]", "result": "4.0 to 8.0", "unit": "µg/mL"}]}
